Assay results: ChEMBL document CHEMBL1157737, “Natural ortho-dihydroxyisoflavone derivatives from aged Korean fermented soybean paste as potent tyrosinase and melanin formation inhibitors” (Bioorg Med Chem Lett, 2010)

Legend:
[1] = test system: Melan-a; experiment: Inhibition of melanin formation in mouse Melan-a cells after 5 days by ELISA; type: functional, cell-based; details: 120 h
[2] = Antioxidant activity assessed as superoxide radical scavenging activity after 2 mins by NBT reduction assay; type: functional
[3] = target: T1, Tyrosinase (Mus musculus, UniProt P11344); experiment: Inhibition of tyrosinase in mouse Melan-a cells by ELISA; type: cell-based
T1 sequence (P11344 whole entry): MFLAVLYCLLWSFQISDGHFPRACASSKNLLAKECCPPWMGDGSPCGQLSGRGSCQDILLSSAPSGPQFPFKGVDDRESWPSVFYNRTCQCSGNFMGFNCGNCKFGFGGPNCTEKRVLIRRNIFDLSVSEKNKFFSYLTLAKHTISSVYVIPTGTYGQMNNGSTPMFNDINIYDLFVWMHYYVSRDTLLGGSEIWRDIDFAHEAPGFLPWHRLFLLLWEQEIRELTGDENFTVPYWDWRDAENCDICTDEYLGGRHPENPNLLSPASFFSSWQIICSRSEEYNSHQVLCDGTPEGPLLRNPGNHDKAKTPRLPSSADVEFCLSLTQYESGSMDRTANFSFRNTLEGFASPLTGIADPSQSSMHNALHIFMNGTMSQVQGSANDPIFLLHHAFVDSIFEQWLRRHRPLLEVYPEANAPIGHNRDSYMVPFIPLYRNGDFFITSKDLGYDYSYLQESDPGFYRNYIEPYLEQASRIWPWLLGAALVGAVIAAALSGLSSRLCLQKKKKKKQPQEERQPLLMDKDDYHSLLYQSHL

SMILES | IC50 [1] | IC50 [2] | IC50 [3]
OC[C@H]1O[C@@H](Oc2ccc(O)cc2)[C@H](O)[C@@H](O)[C@@H]1O [ARBUTIN] | 98 µM |  | 
O=c1c(-c2ccc(O)cc2)coc2cc(O)ccc12 [DAIDZEIN] | > 500 µM | > 500 µM | > 500 µM
O=c1c(-c2ccc(O)c(O)c2)coc2cc(O)ccc12 | 7.83 µM | 10.5 µM | 5.23 µM
COc1cc2c(=O)c(-c3ccc(O)cc3)coc2cc1O [GLYCITEIN] | > 500 µM | > 500 µM | > 500 µM
O=c1c(-c2ccc(O)cc2)coc2c(O)c(O)ccc12 | 12.2 µM | 18.1 µM | 11.2 µM
O=c1c(-c2ccc(O)cc2)coc2cc(O)cc(O)c12 [GENISTEIN] | 57.8 µM | 489 µM | > 500 µM
O=C1O[C@H]([C@@H](O)CO)C(O)=C1O [ASCORBIC ACID] |  | 65.1 µM | 
O=c1c(-c2ccc(O)cc2)coc2cc(O)c(O)cc12 | > 500 µM | > 500 µM | > 500 µM
